Structures can show the parent of a compound that is named as a salt.
Test system: hair cells
Assay: Hair cell toxicity assay in zebrafish (neomycin-induced hair cell death, DASPEI staining of neuromasts)
Assay type: in vivo
Settings: Danio rerio; for Emax at 8.3 µM: maximum observed @ 8.3 μM test compound; for EC50: zebrafish larvae 5-7 dpf, 1 h pre-treatment, then 200 micromolar neomycin + test compound 30 min, read-out: HC50 (concentration that would produce 50% hair cell survival); for Emax at 2.8 µM: maximum observed @ 2.8 μM test compound; for Emax at 25 µM: maximum observed @ 25 μM test compound
How it was run: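 Hair cell survival, as % of untreated controls, came from DASPEI scoring (0-2 each, ten neuromasts on one side) in 5-7 dpf larvae. These had 1 h compound pre-exposure (0.010-25 μM), then 200 μM neomycin with compound for 30 min. HCmax is peak protection; HC50 interpolated between flanking concentrations only when ≥50% survive.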

[1] = 200 micromolar neomycin, read-out: Max HC Protection (HCmax, % hair cell survival)

SMILES | EC50 [nM] | Emax at 2.8 µM [1] [%] | Emax at 25 µM [1] [%] | other results
CCN1CCc2c(sc(NC(=O)Nc3ccc(C#N)cc3)c2C(N)=O)C1 [Example 67, 2-[3-(4-Cyanophenyl)ureido]-6-ethyl-4,5,6,7-tetrahydrothieno[2,3-c]pyridine-3-carboxamide hydrochloride] | – | – | – | Emax at 8.3 µM [1]: 20%
NC(=O)c1c(NC(=O)Nc2ccc(Cl)cc2)sc2c1CCN(CC1CCCC1)C2 [Example 17, 2-[3-(4-Chlorophenyl)ureido]-6-(cyclopentylmethyl)-4,5,6,7-tetrahydrothieno[2,3-c]pyridine-3-carboxamide hydrochloride] | 1000 to 10000 | – | – | Emax at 8.3 µM [1]: 65%
CN1C2CCC1c1sc(NC(=O)Nc3ccc(C(=O)c4ccccc4)cc3)c(C(N)=O)c1C2 (racemic) [Example 126, (+/−)-2-[3-(4-Benzoylphenyl)ureido]-9-methyl-5,6,7,8-tetrahydro-4H-5,8-epiminocyclohepta[b]thiophene-3-carboxamide hydrochloride] | – | 41 | – | –
NC(=O)c1c(NC(=O)Nc2ccc(Cl)cc2)sc2c1CCN(CCC(=O)O)C2 [Example 52, 3-{3-Carbamoyl-2-[3-(4-chlorophenyl)ureido]-4,5-dihydrothieno[2,3-c]pyridin-6(7H)-yl}propanoic acid trifluoroacetate] | – | – | 33 | –
CCN1CCc2c(sc(NC(=O)Nc3ccc(Cl)cc3)c2C#N)C1 [Example 87, 1-(4-Chlorophenyl)-3-(3-cyano-6-ethyl-4,5,6,7-tetrahydrothieno[2,3-c]pyridin-2-yl)urea] | – | – | 11 | –
NC(=O)c1c(NC(=O)Nc2ccc(Cl)cc2)sc2c1CCOC2 [Example 92, 2-[3-(4-Chlorophenyl)ureido]-5,7-dihydro-4H-thieno[2,3-c]pyran-3-carboxamide] | – | 22 | – | –
CCN1CCc2c(sc(NC(=O)Nc3ccc(Cl)s3)c2C(N)=O)C1 [Example 94, 2-[3-(5-Chlorothiophen-2-yl)ureido]-6-ethyl-4,5,6,7-tetrahydrothieno[2,3-c]pyridine-3-carboxamide hydrochloride] | > 10000 | – | 69 | –
NC(=O)c1c(NC(=O)Nc2ccc(Cl)cc2)sc2c1CCN(CC1CCCCC1)C2 [Example 16, 2-[3-(4-Chlorophenyl)ureido]-6-(cyclohexylmethyl)-4,5,6,7-tetrahydrothieno[23-c]pyridine-3-carboxamide hydrochloride] | 1000 to 10000 | 57 | – | –
NC(=O)c1c(NC(=O)Nc2ccc3ccccc3c2)sc2c1CCN(CCCCO)C2 [Example 37, 6-(4-Hydroxybutyl)-2-[3-(naphthalen-2-yl)ureido]-4,5,6,7-tetrahydrothieno[2,3-c]pyridine-3-carboxamide hydrochloride] | 1000 to 10000 | – | 105 | –
CC(C1CCC1)N1CCc2c(sc(NC(=O)Nc3ccc(Cl)cc3)c2C(N)=O)C1 (racemic) [Example 47, (+/−)-2-[3-(4-chlorophenyl)ureido]-6-(1-cyclobutylethyl)-4,5,6,7-tetrahydrothieno[2,3-c]pyridine-3-carboxamide hydrochloride] | < 1000 | 73 | – | –
CC(C)(C)OC(=O)NCCCN1CCc2c(sc(NC(=O)Nc3ccc(C(=O)c4ccccc4)cc3)c2C(N)=O)C1 [Example 208, tert-Butyl N-[3-(2-{[(4-benzoylphenyl)carbamoyl]amino}-3-carbamoyl-4H,5H,6H,7H-thieno[2,3-c]pyridin-6-yl)propyl]carbamate] | 1000 to 10000 | 56 | – | –
C[N+]1(C)CCCC12CCc1c(sc(NC(=O)Nc3ccc(Cl)cc3)c1C(N)=O)C2 (racemic) [Example 186, (+/−)-3-Carbamoyl-2-[3-(4-chlorophenyl)ureido]-1′,1′-dimethyl-5,7-dihydro-4H-spiro(benzo[b]thiophene-6,2′-pyrrolidin)-1′-ium trifluoroacetate] | < 1000 | 65 | – | –
NC(=O)CCN1CCc2c(sc(NC(=O)Nc3ccc(Cl)cc3)c2C(N)=O)C1 [Example 50, 6-(3-amino-3-oxopropyl)-2-[3-(4-chlorophenyl)ureido]-4,5,6,7-tetrahydrothieno[2,3-c]pyridine-3-carboxamide hydrochloride] | 1000 to 10000 | – | 82 | –
CC(C)(C)OC(=O)C1CC(N2CCc3c(sc(NC(=O)Nc4ccc(Cl)cc4)c3C(N)=O)C2)C1 (stereo not shown) [Example 22, tert-Butyl 3-{3-carbamoyl-2-[3-(4-chlorophenyl)ureido]-4,5-dihydrothieno[2,3-c]pyridin-6(7H)-yl}cyclobutanecarboxylate] | – | 22 | – | –
CCN1CCc2c(sc(NC(=O)Nc3ccc(C)c(Cl)c3)c2C(N)=O)C1 [Example 83, 2-[3-(3-Chloro-4-methylphenyl)ureido]-6-ethyl-4,5,6,7-tetrahydrothieno[2,3-c]pyridine-3-carboxamide hydrochloride] | 1000 to 10000 | – | 63 | –
CC[N+]1(CC2CCCCC2)CCc2c(sc(NC(=O)Nc3ccc(Cl)cc3)c2C(N)=O)C1 (stereo not shown) [Example 195, 3-Carbamoyl-2-[3-(4-chlorophenyl)ureido]-6-(cyclohexylmethyl)-6-ethyl-4,5,6,7-tetrahydrothieno[2,3-c]pyridin-6-ium trifluoroacetate] | < 1000 | – | – | Emax at 0.9 µM (maximum observed @ 0.9 μM test compound, 200 micromolar neomycin, read-out: Max HC Protection (HCmax, % hair cell survival)): 74%
C[N+]1(C2COC2)CCc2c(sc(NC(=O)Nc3ccc(Cl)cc3)c2C(N)=O)C1 (stereo not shown) [Example 142, 3-Carbamoyl-2-[3-(4-chlorophenyl)ureido]-6-methyl-6-(oxetan-3-yl)-4,5,6,7-tetrahydrothieno[2,3-c]pyridin-6-ium iodide] | 1000 to 10000 | – | 82 | –
CC(C)(C)OC(=O)CC[N+]1(C)CCc2c(sc(NC(=O)Nc3ccc(Cl)cc3)c2C(N)=O)C1 (stereo not shown) [Example 151, 6-(3-tert-Butoxy-3-oxopropyl)-3-carbamoyl-2-[3-(4-chlorophenyl)ureido]-6-methyl-4,5,6,7-tetrahydrothieno[2,3-c]pyridin-6-ium iodide] | < 1000 | 105 | – | –
CC(C)C(C)N1CCc2c(sc(NC(=O)Nc3ccc(Cl)cc3)c2C(N)=O)C1 (racemic) [Example 48, (+/−)-2-[3-(4-Chlorophenyl)ureido]-6-(3-methylbutan-2-yl)-4,5,6,7-tetrahydrothieno[2,3-c]pyridine-3-carboxamide hydrochloride] | 1000 to 10000 | – | 72 | –
CC(=O)NCCN1CCc2c(sc(NC(=O)Nc3ccc(Cl)cc3)c2C(N)=O)C1 [Example 15, 6-(2-Acetamidoethyl)-2-[3-(4-chlorophenyl)ureido]-4,5,6,7-tetrahydrothieno[2,3-c]pyridine-3-carboxamide trifluoroacetate] | > 10000 | – | 57 | –
CC(C)(C)CN1CCc2c(sc(NC(=O)Nc3ccc(Cl)c4ccccc34)c2C(N)=O)C1 [Example 41, 2-[3-(4-Chloronaphthalen-1-yl)ureido]-6-neopentyl-4,5,6,7-tetrahydrothieno[2,3-c]pyridine-3-carboxamide hydrochloride] | – | – | – | Emax at 8.3 µM [1]: 39%
CCOC(=O)CCN1CCc2c(sc(NC(=O)Nc3ccc(Cl)cc3)c2C(N)=O)C1 [Example 56, Ethyl 3-{3-carbamoyl-2-[3-(4-chlorophenyl)ureido]-4,5-dihydrothieno[2,3-c]pyridin-6(7H)-yl}propanoate hydrochloride] | – | 48 | – | –
CC(C)CN1CCc2c(sc(NC(=O)Nc3ccc(Cl)c4ccccc34)c2C(N)=O)C1 [Example 39, 2-[3-(4-Chloronaphthalen-1-yl)ureido]-6-isobutyl-4,5,6,7-tetrahydrothieno[2,3-c]pyridine-3-carboxamide hydrochloride] | > 10000 | – | 56 | –
CC1(C[N+]2(C)CCc3c(sc(NC(=O)Nc4ccc(Cl)cc4)c3C(N)=O)C2)CC1 (stereo not shown) [Example 196, 3-Carbamoyl-2-[3-(4-chlorophenyl)ureido]-6-methyl-6-[(1-methylcyclopropyl)methyl]-4,5,6,7-tetrahydrothieno[2,3-c]pyridin-6-ium trifluoroacetate] | < 1000 | 85 | – | –
CCN1CCc2c(sc(NC(=O)NCc3ccc(Cl)cc3)c2C(N)=O)C1 [Example 76, 2-[3-(4-Chlorobenzyl)ureido]-6-ethyl-4,5,6,7-tetrahydrothieno[2,3-c]pyridine-3-carboxamide hydrochloride] | – | – | 40 | –
CCN1CCc2c(sc(NC(=O)Nc3cccc4nsnc34)c2C(N)=O)C1 [Example 80, 2-[3-(Benzo[c][1,2,5]thiadiazol-4-yl)ureido]-6-ethyl-4,5,6,7-tetrahydrothieno[2,3-c]pyridine-3-carboxamide hydrochloride] | – | – | – | Emax at 8.3 µM [1]: 36%
CC(C(=O)OC(C)(C)C)N1CCc2c(sc(NC(=O)Nc3ccc(Cl)cc3)c2C(N)=O)C1 (racemic) [Example 59, (+/−)-tert-Butyl 2-{3-carbamoyl-2-[3-(4-chlorophenyl)ureido]-4,5-dihydrothieno[2,3-c]pyridin-6(7H)-yl}propanoate] | – | – | – | Emax at 8.3 µM [1]: 40%
CC(C(=O)O)N1CCc2c(sc(NC(=O)Nc3ccc(Cl)cc3)c2C(N)=O)C1 (racemic) [Example 62, (+/−)-2-{3-Carbamoyl-2-[3-(4-chlorophenyl)ureido]-4,5-dihydrothieno[2,3-c]pyridin-6(7H)-yl}propanoic acid hydrochloride] | – | – | 29 | –
COC(=O)CCC[N+]1(C)CCc2c(sc(NC(=O)Nc3ccc(Cl)cc3)c2C(N)=O)C1 (stereo not shown) [Example 158, 3-Carbamoyl-2-[3-(4-chlorophenyl)ureido]-6-(4-methoxy-4-oxobutyl)-6-methyl-4,5,6,7-tetrahydrothieno[2,3-c]pyridin-6-ium iodide] | 1000 to 10000 | – | 80 | –
